Test results taken from article PMC10233092, “Selective Janus kinase 1 inhibition resolves inflammation and restores hair growth offering a viable treatment option for alopecia areata” (Skin Health and Disease, 2023).
Values joined by “and” are separate entries in the source; they are usually repeats but may differ in a detail not shown here. Identical values can stand only once.

Columns and labels:
[1] = Plasma and skin exposure in treated AA mice; conditions: AA mice
Basic pKa = format: physicochemical; conditions: read-out: Basic pKa's
Source text: TABLE 2 In vitro and in vivo DMPK properties of Cmpd A, B & C | column: In vitro mouse & physical chemical properties / Basic pKa's

JAK3 = target: T1, JAK3 (Homo sapiens, UniProt P52333); assay: JAK3 kinase inhibition, Calliper assay; format: biochemical; conditions: physiological ATP concentration of 5 mM
T1 sequence (P52333 1-1124): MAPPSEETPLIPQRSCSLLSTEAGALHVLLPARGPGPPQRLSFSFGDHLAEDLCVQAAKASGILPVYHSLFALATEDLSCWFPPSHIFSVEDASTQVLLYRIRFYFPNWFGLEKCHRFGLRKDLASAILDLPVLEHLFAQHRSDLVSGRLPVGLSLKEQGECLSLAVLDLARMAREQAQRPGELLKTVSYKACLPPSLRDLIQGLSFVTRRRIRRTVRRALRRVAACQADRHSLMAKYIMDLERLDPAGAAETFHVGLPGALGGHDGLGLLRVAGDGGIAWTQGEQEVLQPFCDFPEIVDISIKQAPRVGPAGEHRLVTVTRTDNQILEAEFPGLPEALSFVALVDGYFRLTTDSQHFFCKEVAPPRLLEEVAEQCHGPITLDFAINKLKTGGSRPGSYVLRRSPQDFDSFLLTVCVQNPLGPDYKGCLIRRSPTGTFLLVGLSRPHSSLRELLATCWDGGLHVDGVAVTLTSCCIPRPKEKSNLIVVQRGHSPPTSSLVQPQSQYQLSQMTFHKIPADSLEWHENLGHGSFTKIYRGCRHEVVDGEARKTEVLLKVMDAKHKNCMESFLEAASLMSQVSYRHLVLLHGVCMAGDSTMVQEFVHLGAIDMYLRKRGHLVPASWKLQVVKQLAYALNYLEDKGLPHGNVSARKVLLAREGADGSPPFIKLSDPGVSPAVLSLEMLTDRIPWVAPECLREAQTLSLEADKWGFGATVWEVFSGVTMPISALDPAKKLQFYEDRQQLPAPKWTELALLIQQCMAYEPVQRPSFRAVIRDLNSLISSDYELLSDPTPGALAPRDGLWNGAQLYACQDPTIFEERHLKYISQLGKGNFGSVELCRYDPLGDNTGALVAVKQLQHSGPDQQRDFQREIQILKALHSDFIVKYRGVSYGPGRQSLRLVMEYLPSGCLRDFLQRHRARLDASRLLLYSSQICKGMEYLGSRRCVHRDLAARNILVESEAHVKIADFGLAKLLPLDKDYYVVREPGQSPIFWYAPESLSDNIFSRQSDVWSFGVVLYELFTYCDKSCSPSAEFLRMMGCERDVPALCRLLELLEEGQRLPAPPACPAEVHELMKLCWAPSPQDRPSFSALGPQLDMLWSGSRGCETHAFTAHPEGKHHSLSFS

IL‐13, STAT6‐Luc = assay: IL-13-induced JAK-STAT6-luciferase assay in U937 monocytes; format: cell-based; conditions: Homo sapiens, U-937, interleukin at EC80
JAK2 = JAK2 (Homo sapiens, UniProt O60674); assay: JAK2 kinase inhibition, Calliper assay; format: biochemical; conditions: physiological ATP concentration of 5 mM
[2] = system: C3H/HeJ mouse model of AA; assay: Skin histopathology and hair follicle analysis in AA mice; format: in vivo; conditions: for Follicle width / Number of hair follicles per section (hypodermal): individual mice and Mean; for skin inflammation, result in words: AA mice, oral daily servings (systemic exposure)
Protocol: A 1 cm^2 area of skin was excised from the right dorsal surface and fixed in 10% neutral buffered formalin for 24 h before processing and embedding in paraffin wax according to standard procedures. Vertical sectioning was chosen to allow for optimal detection of inflammatory cells whilst enabling follicular counts. 3 μm longitudinal sections were cut and stained with haematoxylin and eosin for histopathological analysis. Skin sections were scanned using an Aperio Scanscope. CD8 and NKG2D in situ hybridization (ISH) was carried out using the RNAScope technique[48] according to the manufacturer's protocols. Briefly, tissue sections were deparaffinised and incubated with epitope retrieval solution 2 for 15 min at 88°C followed by ACD protease for 10 min before hybridization with probe Mm‐Klrk1 (ACD, Cat.No.430808) and probe Mm‐Cd8a‐C2 (ACD, Cat.No. 401688‐C2) or duplex negative control probes Mm‐DapB (ACD, Cat.No. 320758). Bound probe was visualized following amplification with RNAScope 2.5 LS Duplex Reagent Kit‐(RED/BROWN) (ACD Cat.No. 322440). Staining was visualized by light microscopy. Number of hair follicles and hair follicle width were analyzed using ImageJ software edition ImageJ2. Images were imported using the bio‐format importer plug in. The number of follicles were counted using the cell counter plugin. All follicles on all sections in the dermal fat layer were counted. Follicle width was calculated with use of the circle tool to capture follicle area and from it calculate the width. All follicles on all sections in the dermal fat layer were included in the width analysis.

[3] = 8w off Tx (4 weeks oral treatment, then 8 weeks off)
[4] = 8w off Tx (4 weeks oral treatment, then 8 weeks off), mean
[5] = Systemic JAK1i, after 4 weeks oral treatment
[6] = Systemic JAK1i, after 4 weeks oral treatment, mean
[7] = topical cream application (local)

Sequence of JAK2 (O60674 whole entry, species assumed): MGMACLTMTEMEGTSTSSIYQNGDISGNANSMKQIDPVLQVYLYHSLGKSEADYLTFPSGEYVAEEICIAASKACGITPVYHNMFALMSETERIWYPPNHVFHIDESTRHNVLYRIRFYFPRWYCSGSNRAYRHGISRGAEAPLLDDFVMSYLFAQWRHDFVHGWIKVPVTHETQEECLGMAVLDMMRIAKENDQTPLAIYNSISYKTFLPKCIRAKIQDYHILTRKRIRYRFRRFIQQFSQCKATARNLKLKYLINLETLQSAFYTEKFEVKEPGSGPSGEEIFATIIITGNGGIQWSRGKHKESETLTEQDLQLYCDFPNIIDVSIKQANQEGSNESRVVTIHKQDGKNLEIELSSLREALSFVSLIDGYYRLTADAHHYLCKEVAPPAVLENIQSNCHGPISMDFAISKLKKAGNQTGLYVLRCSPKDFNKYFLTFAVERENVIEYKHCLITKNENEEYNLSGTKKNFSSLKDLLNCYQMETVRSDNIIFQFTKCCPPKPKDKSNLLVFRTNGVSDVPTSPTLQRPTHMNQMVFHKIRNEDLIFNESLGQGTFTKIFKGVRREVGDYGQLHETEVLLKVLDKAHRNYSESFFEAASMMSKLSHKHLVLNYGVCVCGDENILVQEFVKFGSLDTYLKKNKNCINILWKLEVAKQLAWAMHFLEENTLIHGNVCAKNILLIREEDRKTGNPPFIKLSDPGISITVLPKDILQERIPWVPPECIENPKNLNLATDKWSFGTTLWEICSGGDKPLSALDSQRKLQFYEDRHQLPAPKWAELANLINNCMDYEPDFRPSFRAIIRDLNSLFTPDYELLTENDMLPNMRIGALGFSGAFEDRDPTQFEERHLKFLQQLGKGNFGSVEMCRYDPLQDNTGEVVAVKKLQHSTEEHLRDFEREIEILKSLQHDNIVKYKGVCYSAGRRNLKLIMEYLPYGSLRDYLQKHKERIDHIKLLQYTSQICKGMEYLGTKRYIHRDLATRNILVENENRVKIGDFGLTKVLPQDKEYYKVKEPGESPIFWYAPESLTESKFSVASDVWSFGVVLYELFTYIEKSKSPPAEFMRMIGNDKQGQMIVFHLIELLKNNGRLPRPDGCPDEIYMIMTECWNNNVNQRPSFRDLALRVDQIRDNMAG

| estimated average free exposure in plasma over IC50 ([1]; oral daily servings (systemic)) | estimated average free exposure in skin over IC50 ([1]; oral daily servings (systemic)) | pKa (Basic pKa) | IC50 (JAK3) | IC50 (IL‐13, STAT6‐Luc) | IC50 (JAK2) | estimated average free exposure in plasma over IC50 [1, 7] | estimated average free exposure in skin over IC50 [1, 7] | Structure (SMILES) | Follicle width [2, 3] | Number of hair follicles per section (hypodermal) [2, 3] | Follicle width [2, 4] | Number of hair follicles per section (hypodermal) [2, 4] | skin inflammation, result in words [2] | Follicle width [2, 5] | Number of hair follicles per section (hypodermal) [2, 5] | Follicle width [2, 6] | Number of hair follicles per section (hypodermal) [2, 6] |
| --- | --- | --- | --- | --- | --- | --- | --- | --- | --- | --- | --- | --- | --- | --- | --- | --- | --- |
| 1.2 fold IC50 | 0.1 fold IC50 | 7.9 | > 30 µM | 0.12 µM | 18 µM | – | – | Cc1cnc(Nc2cccnc2F)nc1-c1c[nH]c2c(NC(=O)[C@@H](C)N3CCN(C)CC3)cccc12 [Cmpd A] | 36 μm and 26 μm and 38 μm and 31 μm and 35 μm | 51 and 595 and 35 and 9 and 44 and 48 | 32 μm | 130 | resolution of inflammation in the skin | 28 μm and 26 μm and 29 μm and 25 μm | 150 and 542 and 263 and 363 and 20 and 288 | 27 μm | 271 |
| – | – | 8.6 | > 30 µM | 0.1 µM | > 30 µM | 0.02 fold IC50 | 1.9 fold IC50 | Cc1cnc(Nc2cc(N3C[C@@H]4C[C@H]3CN4C)cnc2F)nc1N[C@H](C)[C@H](C)CO [Cmpd B, (2S,3R)-3-{[2-({2-fluoro-5-[(1S,4S)-5-methyl-2,5-diazabicyclo[2.2.1]heptan-2-yl]pyridin-3-yl}amino)-5-methylpyrimidin-4-yl]amino}-2-methylbutan-1-ol] | – | – | – | – | – | – | – | – | – |
| – | – | 7.9 | > 30 µM | – | – | – | – | COCC(C(=O)Nc1cccc2c(-c3nc(Nc4cccc(S(C)(=O)=O)c4F)ncc3F)c[nH]c12)N1CCN(C)CC1 (stereo not drawn) [Cmpd C] | – | – | – | – | resolved inflammation | – | – | – | – |
